Results reported in PubChem BioAssay (NCI).
Values joined by “and” are separate entries in the source; they are usually repeats but may differ in a detail not shown here. Identical values can stand only once.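 Growth conditions: 96-well plates. Treatment: test compound, 48 hours, 5 concentrations. Analysis: linear interpolation between bracketing concentrations; unreached endpoints set to highest concentration. Abbreviation: GI50, concentration required for 50% inhibition of growth. The concentration for full growth arrest is given as TGI.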

Tests used:
Test in all cases: NCI tumour cell line growth inhibition, 48 h
P388 leukemia = tested on: P388 leukemia
HCT-15 colon = tested on: HCT-15 colon
M19-MEL melanoma = tested on: M19-MEL melanoma
MDA-MB-231 breast = tested on: MDA-MB-231 breast
HT29 colon = tested on: HT29 colon
XF 498 CNS = tested on: XF 498 CNS
SK-MEL-5 melanoma = tested on: SK-MEL-5 melanoma
SW-620 colon = tested on: SW-620 colon
SK-MEL-28 melanoma = tested on: SK-MEL-28 melanoma
DLD-1 colon = tested on: DLD-1 colon
OVCAR-5 ovarian = tested on: OVCAR-5 ovarian
SNB-75 CNS = tested on: SNB-75 CNS
SF-295 CNS = tested on: SF-295 CNS
LOX IMVI melanoma = tested on: LOX IMVI melanoma
DMS 273 small cell lung = tested on: DMS 273 small cell lung
SNB-19 CNS = tested on: SNB-19 CNS
RXF 393 renal = tested on: RXF 393 renal
HCC-2998 colon = tested on: HCC-2998 colon
K-562 leukemia = tested on: K-562 leukemia
NCI-H460 lung = tested on: NCI-H460 lung
DU-145 prostate = tested on: DU-145 prostate
CAKI-1 renal = tested on: CAKI-1 renal
HOP-62 NSCLC = tested on: HOP-62 NSCLC
SN12K1 renal = tested on: SN12K1 renal
MCF7 breast = tested on: MCF7 breast
ACHN renal = tested on: ACHN renal
PC-3 prostate = tested on: PC-3 prostate
OVCAR-3 ovarian = tested on: OVCAR-3 ovarian
SNB-78 CNS = tested on: SNB-78 CNS
A549 NSCLC = tested on: A549 NSCLC
UO-31 renal = tested on: UO-31 renal
TK-10 renal = tested on: TK-10 renal
CCRF-CEM leukemia = tested on: CCRF-CEM leukemia
SK-MEL-2 melanoma = tested on: SK-MEL-2 melanoma
MDA-MB-435 = tested on: MDA-MB-435
OVCAR-8 ovarian = tested on: OVCAR-8 ovarian
OVCAR-4 ovarian = tested on: OVCAR-4 ovarian
M14 melanoma = tested on: M14 melanoma
HS 578T breast = tested on: HS 578T breast
NCI-H23 lung = tested on: NCI-H23 lung
HOP-18 NSCLC = tested on: HOP-18 NSCLC
KM12 colon = tested on: KM12 colon
SF-539 CNS = tested on: SF-539 CNS
NCI/ADR-RES ovarian = tested on: NCI/ADR-RES ovarian
UACC-62 melanoma = tested on: UACC-62 melanoma
KM20L2 colon = tested on: KM20L2 colon
SN12C renal = tested on: SN12C renal
EKVX NSCLC = tested on: EKVX NSCLC
NCI-H522 lung = tested on: NCI-H522 lung
COLO 205 colon = tested on: COLO 205 colon
MOLT-4 leukemia = tested on: MOLT-4 leukemia
SR leukemia = tested on: SR leukemia
HCT-116 colon = tested on: HCT-116 colon
A498 renal = tested on: A498 renal
HOP-92 NSCLC = tested on: HOP-92 NSCLC
UACC-257 melanoma = tested on: UACC-257 melanoma
MALME-3M melanoma = tested on: MALME-3M melanoma
786-0 renal = tested on: 786-0 renal
MDA-N = tested on: MDA-N
SK-OV-3 ovarian = tested on: SK-OV-3 ovarian
T-47D breast = tested on: T-47D breast
RPMI-8226 leukemia = tested on: RPMI-8226 leukemia
P388/ADR leukemia = tested on: P388/ADR leukemia
BT-549 breast = tested on: BT-549 breast
HL-60(TB) leukemia = tested on: HL-60(TB) leukemia
NCI-H226 lung = tested on: NCI-H226 lung
DMS 114 small cell lung = tested on: DMS 114 small cell lung
U251 CNS = tested on: U251 CNS
IGROV1 ovarian = tested on: IGROV1 ovarian
SF-268 CNS = tested on: SF-268 CNS
LXFL 529 NSCLC = tested on: LXFL 529 NSCLC
RXF-631 renal = tested on: RXF-631 renal

O=C1N[C@@H]([C@H]2CC[C@H](Cl)CN2)C(=O)N[C@H]1[C@H]1CC[C@H](Cl)CN1
TGI (P388 leukemia): 20.3 µM
TGI (HCT-15 colon): 57.5 µM
TGI (M19-MEL melanoma): 23.5 µM
TGI (MDA-MB-231 breast): 6.43 µM
TGI (HT29 colon): 32.1 µM
TGI (XF 498 CNS): 0.819 µM
TGI (SK-MEL-5 melanoma): 5.53 µM
TGI (SW-620 colon): 29.4 µM
TGI (SK-MEL-28 melanoma): 31.1 µM
TGI (DLD-1 colon): 286 µM
TGI (OVCAR-5 ovarian): 9.05 µM
TGI (SNB-75 CNS): 3.65 µM
TGI (SF-295 CNS): 5.36 µM
TGI (LOX IMVI melanoma): 2.6 µM
TGI (DMS 273 small cell lung): 7.35 µM
TGI (SNB-19 CNS): 104 µM
TGI (RXF 393 renal): 12.2 µM
TGI (HCC-2998 colon): 6.42 µM
TGI (K-562 leukemia): 227 µM
TGI (NCI-H460 lung): 2.88 µM
TGI (DU-145 prostate): 23.8 µM
TGI (CAKI-1 renal): 3.06 µM
TGI (HOP-62 NSCLC): 4.04 µM
TGI (SN12K1 renal): 13.5 µM
TGI (MCF7 breast): 7.25 µM
TGI (ACHN renal): 1.5 µM
TGI (PC-3 prostate): 18 µM
TGI (OVCAR-3 ovarian): 7.61 µM
TGI (SNB-78 CNS): 87.8 µM
TGI (A549 NSCLC): 76.5 µM
TGI (UO-31 renal): 6.42 µM
TGI (TK-10 renal): 36.6 µM
TGI (CCRF-CEM leukemia): 33.4 µM
TGI (SK-MEL-2 melanoma): 7.95 µM
TGI (MDA-MB-435): 32 µM
TGI (OVCAR-8 ovarian): 13.9 µM
TGI (OVCAR-4 ovarian): 8.78 µM
TGI (M14 melanoma): 2.3 µM
TGI (HS 578T breast): 91.7 µM
TGI (NCI-H23 lung): 8.76 µM
TGI (HOP-18 NSCLC): 139 µM
TGI (KM12 colon): 19.1 µM
TGI (SF-539 CNS): 4.27 µM
TGI (NCI/ADR-RES ovarian): 10.4 µM
TGI (UACC-62 melanoma): 3.53 µM
TGI (KM20L2 colon): 63.9 µM
TGI (SN12C renal): 18.9 µM
TGI (EKVX NSCLC): 19.2 µM
TGI (NCI-H522 lung): 4.06 µM
TGI (COLO 205 colon): 9.68 µM
TGI (MOLT-4 leukemia): 13.3 µM
TGI (SR leukemia): 6.18 µM
TGI (HCT-116 colon): 32.7 µM
TGI (A498 renal): 15.6 µM
TGI (HOP-92 NSCLC): 7.95 µM
TGI (UACC-257 melanoma): 15.1 µM
TGI (MALME-3M melanoma): 8.59 µM
TGI (786-0 renal): 0.61 µM
TGI (MDA-N): 4.98 µM
TGI (SK-OV-3 ovarian): 2.31 µM
TGI (T-47D breast): 56.1 µM
TGI (RPMI-8226 leukemia): 75.1 µM
TGI (P388/ADR leukemia): 23.1 µM
TGI (BT-549 breast): 4.27 µM
TGI (HL-60(TB) leukemia): 0.426 µM
TGI (NCI-H226 lung): 11.6 µM
TGI (DMS 114 small cell lung): 10.6 µM
TGI (U251 CNS): 12.3 µM
TGI (IGROV1 ovarian): 37.6 µM
TGI (SF-268 CNS): 51.5 µM

COc1cccc2c1C(=O)c1c(O)c3c(c(O)c1C2=O)C[C@@](O)(C(C)=O)C[C@@H]3OC1CC(N(Cc2ccccc2)Cc2ccccc2)C(O)C(C)O1 (stereo partly drawn)
TGI (P388 leukemia): 12.3 µM
TGI (MDA-MB-231 breast): > 28.1 µM
GI50 (SW-620 colon): < 0.01 µM and 0.0869 µM
TGI (DU-145 prostate): > 28.1 µM
TGI (SN12K1 renal): > 46.9 µM
TGI (MCF7 breast): > 36 µM
TGI (PC-3 prostate): > 28.1 µM
TGI (MDA-MB-435): 14 µM
TGI (HS 578T breast): > 50 µM
TGI (NCI/ADR-RES ovarian): > 37.5 µM
TGI (MDA-N): > 23.2 µM
TGI (T-47D breast): > 28.1 µM
GI50 (LXFL 529 NSCLC): < 0.01 µM
TGI (P388/ADR leukemia): > 50 µM
TGI (BT-549 breast): > 50 µM

NC1(C(=O)O)CCC(C(=O)O)CC1 (stereo not drawn)
TGI (M19-MEL melanoma): > 100 µM
TGI (HT29 colon): > 100 µM
TGI (XF 498 CNS): > 100 µM
TGI (SK-MEL-5 melanoma): > 100 µM
TGI (SW-620 colon): > 100 µM
TGI (SK-MEL-28 melanoma): > 100 µM
TGI (DLD-1 colon): > 100 µM
TGI (OVCAR-5 ovarian): > 100 µM
TGI (SNB-75 CNS): > 100 µM
TGI (SF-295 CNS): > 100 µM
TGI (LOX IMVI melanoma): > 100 µM
TGI (DMS 273 small cell lung): > 100 µM
TGI (SNB-19 CNS): > 100 µM
TGI (RXF 393 renal): > 100 µM
TGI (HCC-2998 colon): > 100 µM
TGI (K-562 leukemia): > 100 µM
TGI (NCI-H460 lung): > 100 µM
TGI (RXF-631 renal): > 100 µM
TGI (CAKI-1 renal): > 100 µM
TGI (HOP-62 NSCLC): > 100 µM
TGI (ACHN renal): > 100 µM
TGI (OVCAR-3 ovarian): > 100 µM
TGI (SNB-78 CNS): > 100 µM
TGI (A549 NSCLC): > 100 µM
TGI (UO-31 renal): > 100 µM
TGI (TK-10 renal): > 100 µM
TGI (CCRF-CEM leukemia): > 100 µM
TGI (SK-MEL-2 melanoma): > 100 µM
TGI (OVCAR-8 ovarian): > 100 µM
TGI (OVCAR-4 ovarian): > 100 µM
TGI (M14 melanoma): > 100 µM
TGI (NCI-H23 lung): > 100 µM
TGI (HOP-18 NSCLC): > 100 µM
TGI (KM12 colon): > 100 µM
TGI (SF-539 CNS): > 100 µM
TGI (UACC-62 melanoma): > 100 µM
TGI (KM20L2 colon): > 100 µM
TGI (SN12C renal): > 100 µM
TGI (EKVX NSCLC): > 100 µM
TGI (NCI-H522 lung): > 100 µM
TGI (COLO 205 colon): > 100 µM
TGI (MOLT-4 leukemia): > 100 µM
TGI (SR leukemia): > 100 µM
TGI (HCT-116 colon): > 100 µM
TGI (A498 renal): > 100 µM
TGI (HOP-92 NSCLC): > 100 µM
TGI (UACC-257 melanoma): > 100 µM
TGI (MALME-3M melanoma): > 100 µM
TGI (786-0 renal): > 100 µM
TGI (SK-OV-3 ovarian): > 100 µM
TGI (LXFL 529 NSCLC): > 100 µM
TGI (RPMI-8226 leukemia): > 100 µM
TGI (HL-60(TB) leukemia): > 100 µM
TGI (NCI-H226 lung): > 100 µM
TGI (DMS 114 small cell lung): > 100 µM
TGI (U251 CNS): > 100 µM
TGI (IGROV1 ovarian): > 100 µM
TGI (SF-268 CNS): > 100 µM
